# Marks after values point to notes of the source that are not given here.
# Test system: upper airways
# Assay: Animal model of obstructive sleep apnoea in the pig (collapsibility of the upper airways under negative pressure)
# Format: in vivo, German Landrace pigs
# Source text: The effects of the formulations according to the invention of the inhibitors of TASK-1 and/or TASK-3 channels on the activation threshold of the genioglossus muscle by negative pressure and the collapsibility of the upper airways were investigated in a pig model for obstructive sleep apnoea. Using negative pressure, it is possible to induce collapse and thus obstruction of the upper airways in anaesthetized, spontaneously breathing pigs [Wirth et al., Sleep 36, 699-708 (2013)]. German Landrace pigs were used for the model. Since the nasal axis is in an almost vertical position in humans in a horizontal sleeping position, the pigs in the experiments were fixed in a sitting position (70 degrees), wherein the nose pointed upwards. After nasal administration, the formulation therefore flowed downwards over all regions of the upper airways. The pigs were anaesthetized and tracheotomized. One cannula each was inserted into the rostral and the caudal part of the trachea. Using a T connector, the rostral cannula was connected on the one hand to a device generating negative pressure and on the other hand to the caudal cannula. Using a T connector, the caudal cannula was connected to the rostral cannula and to a tube which allowed spontaneous breathing circumventing the upper airways. By appropriate closing and opening of the tubes it was thus possible for the pig to change from normal nasal breathing to breathing via the caudal cannula during the time when the upper airways were isolated and were connected to the device for generating negative pressure. The muscle activity of the Musculus genioglossus was recorded by electromyogram (EMG). At certain points in time, the collapsibility of the upper airways was tested by having the pig breathe via the caudal cannula and applying negative pressures of −50, −100 and −150 mbar (corresponding to −50, −100 and −150 cm water column (cm H2O)) to the upper airways. This caused the upper airways to collapse, which manifested itself in an interruption of the airflow and a pressure drop in the tube system. This test was conducted prior to administration of the test substance and at certain intervals after administration of the test substance. An appropriately effective test substance could prevent this collapse of the airways in the inspiratory phase. After changeover from nasal breathing to breathing via the caudal cannula, it was not possible to measure any EMG activity of the Musculus genioglossus in the anaesthetized pig. As a further test, the negative pressure at which EMG activity restarted was then determined. This threshold value was, if a test substance was effective, shifted to more positive values. The test was likewise conducted prior to the administration of the test substance and at certain intervals after the administration of the test substance. The test substance was administered by the nasal route. The results shown in the tables which follow were conducted with the compounds listed in Table 1 as Example 1, Example 3 and Example 4. Unless stated otherwise, the data were measured at a negative pressure of −100 mbar (corresponding to −100 cm water column (cm H2O)) on the upper airways. The active ingredients listed in Table 1 as Example 1, Example 3 and Example 4 were dissolved in the various formulations listed in Table 2 below and administered in an amount of 0 μg, 3 μg, 10 μg, 30 μg or 100 μg per pig. The active ingredient formulation or the pure vehicle was each administered with a pipette at a volume of 400 μl in each nostril. The duration of action in this pig model is defined as the time [min] in which a collapse of the upper airways was not observed in any animal, as a mean value of the specified number of animals. A duration of action specified as “>” X min signifies that the experiment was terminated at X min and up to this point a collapse of the upper airways was still not observed in any animal.
structure (smiles),measurement,setting,value
"O=C(C1CCCC1)N1CCN(Cc2c(-c3ccc(Br)cc3)nc3ccccn23)CC1 [Example 1, (4-{[2-(4-bromophenyl)imidazo[1,2-a]pyridin-3-yl]methyl}piperazin-1-yl)(cyclopentyl)methanone]","Duration of action [min], mean value","Formulation 1 (no glycerol), 10 μg per pig nasal, -50 mbar",150 min
same,"Duration of action [min], mean value","Formulation 1 (no glycerol), 10 μg per pig nasal, -100 mbar",120 min
same,"Duration of action [min], mean value","Formulation 3 (glycerol 2.5% w/v), 10 μg per pig nasal, -50 mbar",>270 min
same,"Duration of action [min], mean value","Formulation 3 (glycerol 2.5% w/v), 10 μg per pig nasal, -100 mbar",240 min
"COc1cccc(C(=O)N2CCN(Cc3c(-c4ccc(Cl)cc4)nc4ccccn34)CC2)n1 [Example 3, (4-{[2-(4-chlorophenyl)imidazo[1,2-a]pyridin-3-yl]methyl}piperazin-1-yl)(6-methoxypyridin-2-yl)methanone]","Duration of action [min], mean value","Formulation 1 (no glycerol), 30 μg per pig nasal, -100 mbar",180* min
same,"Duration of action [min], mean value","Formulation 1 (phosphate buffer pH 7/polysorbate 80, no glycerol), 3 μg per pig nasal, -100 mbar",150 min
same,"Duration of action [min], mean value","Formulation 2 (5% w/v glycerol 85%, 4.25 absolute), 3 μg per pig nasal, -100 mbar",210 min
same,"Duration of action [min], mean value","Formulation 3 (2.5% w/v glycerol 85%, 2.125 absolute), 3 μg per pig nasal, -100 mbar",240 min
same,"Duration of action [min], mean value","Formulation 3 (2.5% w/v glycerol 85%, 2.125 absolute), 30 μg per pig nasal, -100 mbar",390 min
same,"Duration of action [min], mean value","Formulation 4 (1% w/v glycerol 85%, 0.85 absolute), 3 μg per pig nasal, -100 mbar",150 min
same,"Duration of action [min], mean value","Formulation 5 (2.5% w/v glycerol 85% + 20% w/v PEG400), 3 μg per pig nasal, -100 mbar",240 min
same,"Duration of action [min], mean value","Formulation 6 (20% w/v propylene glycol, no glycerol), 30 μg per pig nasal, -100 mbar",180 min
same,"Duration of action [min], mean value","Formulation 7 (1.25% w/v Na-CMC, no glycerol), 3 μg per pig nasal, -100 mbar",120 min
"O=C(c1ccccc1F)N1CCN(Cc2c(-c3ccc(Br)cc3)nc3ccccn23)CC1 [Example 4, (4-{[2-(4-bromophenyl)imidazo[1,2-a]pyridin-3-yl]methyl}piperazin-1-yl)(2-fluorophenyl)methanone]","Duration of action [min], mean value","Formulation 1 (no glycerol), 100 μg per pig nasal, -50 mbar",180 min
same,"Duration of action [min], mean value","Formulation 1 (no glycerol), 100 μg per pig nasal, -100 mbar",180 min
same,"Duration of action [min], mean value","Formulation 3 (glycerol 2.5% w/v), 100 μg per pig nasal, -50 mbar",>300 min
same,"Duration of action [min], mean value","Formulation 3 (glycerol 2.5% w/v), 100 μg per pig nasal, -100 mbar",270 min

# Source: patent US20200093737A1, “PHARMACEUTICAL DOSAGE FORMS CONTAINING TASK-1 AND TASK-3 CHANNEL INHIBITORS, AND THE USE OF SAME IN BREATHING DISORDER THERAPY” (priority 2016, published 2020)
